From US8309552B2, “Immunomodulating heterocyclic compounds” (Medigene AG, priority 2003, dated 2012)

Biological target: T1, CD80-CD28 interaction (Homo sapiens, UniProt P33681)
T1 sequence (P33681 35-242 limits assumed): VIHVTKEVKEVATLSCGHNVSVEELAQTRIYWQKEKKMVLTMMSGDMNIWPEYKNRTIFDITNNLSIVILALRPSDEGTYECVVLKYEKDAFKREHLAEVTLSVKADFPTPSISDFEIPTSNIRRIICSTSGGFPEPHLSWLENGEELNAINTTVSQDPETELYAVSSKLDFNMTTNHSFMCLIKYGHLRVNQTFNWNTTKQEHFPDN
Assay: Homogenous Time Resolved Fluorescence (HTRF) assay, cell free
Type: binding
Conditions: cell free HTRF assay; concentration series 100 μM-1.7 nM; 4 hours at room temperature; read-out: Activity (EC50 in the HTRF assay)
In short: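 Europium and APC labels were linked through antibodies to CD28 and CD80 fusion proteins. Compounds were tested at 100 μM-1.7 nM for 4 h at room temperature in 50 mM Tris-HCl, 150 mM NaCl pH7.8, 0.1% BSA. Emission read at 665 and 615 nm (excitation 340 nm); non-specific signal measured with C215 Fab in place of CD80; EC50 reported in bands.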

First: CCC(CC)CNC(=O)Nc1ccc(-n2[nH]c3c(nnc4ccccc43)c2=O)cc1 [Example 221]
Second: CCNC(=O)Nc1ccc(-n2[nH]c3c(nnc4ccccc43)c2=O)cc1 [Example 282]
The EC50 of the first is higher: over 10 µM for the first, under 1 µM for the second. The second is the more potent here.

`CC(=O)NCCCCNC(=O)Nc1ccc(-n2[nH]c3c(nnc4ccccc43)c2=O)cc1` [Example 222] and `O=C(NCCCCN1CCCC1)Nc1ccc(-n2[nH]c3c(nnc4ccccc43)c2=O)cc1` [Example 228] cannot be ordered by EC50: under 1 µM for the first, under 1 µM for the second.

First: CC(C)(C)OC(=O)CCNC(=O)Nc1ccc(-n2[nH]c3c(nnc4ccccc43)c2=O)cc1 [Example 223]
Second: CN(CCNC(=O)Nc1ccc(-n2[nH]c3c(nnc4ccccc43)c2=O)cc1)C(=O)OC(C)(C)C [Example 265]
The EC50 of the first is lower: 1 to 10 µM for the first, over 10 µM for the second. The first is the more potent here.

First: O=C(NCCN1CCC(Cc2ccccc2)CC1)Nc1ccc(-n2[nH]c3c(nnc4ccccc43)c2=O)cc1 [Example 224]
Second: O=C(NCCCc1ccccc1)Nc1ccc(-n2[nH]c3c(nnc4ccccc43)c2=O)cc1 [Example 291]
The EC50 of the first is lower: under 1 µM for the first, over 10 µM for the second.

Going from `COc1ccc(OCCNC(=O)Nc2ccc(-n3[nH]c4c(nnc5ccccc54)c3=O)cc2)cc1` [Example 225] to `COc1ccc(CNC(=O)c2ccc(-n3[nH]c4c(nnc5ccccc54)c3=O)cc2)cc1` [Example 240], the EC50 falls from over 10 µM to under 1 µM.

`O=C(Nc1ccc(-n2[nH]c3c(nnc4ccccc43)c2=O)cc1)NC1Cc2ccccc2C1` [Example 226] and `O=C(Nc1ccc(-n2[nH]c3c(nnc4ccccc43)c2=O)cc1)NC1CCCC1OCc1ccccc1` (stereo not shown) [Example 292] cannot be ordered by EC50: over 10 µM for the first, over 10 µM for the second.

`O=C(NCCSc1cc(C(F)(F)F)nc2ccccc12)Nc1ccc(-n2[nH]c3c(nnc4ccccc43)c2=O)cc1` [Example 227] and `O=C(Nc1ccc(-n2[nH]c3c(nnc4ccccc43)c2=O)cc1)Nc1nc2ccccc2s1` [Example 293] cannot be ordered by EC50: over 10 µM for the first, over 10 µM for the second.

Compared with `O=C(NCCCN1CCCC1)Nc1ccc(-n2[nH]c3c(nnc4ccccc43)c2=O)cc1` [Example 229], `O=C(NCCCN1CCCC1=O)Nc1ccc(-n2[nH]c3c(nnc4ccccc43)c2=O)cc1` [Example 297] is higher in EC50: under 1 µM for the first, 1 to 10 µM for the second.

Compared with `CN(C)CCCNC(=O)c1ccc(-n2[nH]c3c(nnc4c(F)cccc43)c2=O)cc1` [Example 232], `CCCCNC(=O)c1ccc(-n2[nH]c3c(nnc4ccccc43)c2=O)cc1` [Example 241] is higher in EC50: under 1 µM for the first, 1 to 10 µM for the second. The first is the more potent here.

First: CN1C(C)(C)CC(NC(=O)c2ccc(-n3[nH]c4c(nnc5c(F)cccc54)c3=O)cc2)CC1(C)C [Example 234]
Second: O=C(NC1CCC1)c1ccc(-n2[nH]c3c(nnc4ccccc43)c2=O)cc1 [Example 239]
The EC50 of the first is lower: under 1 µM for the first, 1 to 10 µM for the second.

Compared with `COc1ccc(CNC(=O)c2ccc(-n3[nH]c4c(nnc5ccccc54)c3=O)cc2)c(OC)c1` [Example 236], `O=C(NCc1cccc(F)c1)c1ccc(-n2[nH]c3c(nnc4ccccc43)c2=O)cc1` [Example 250] is lower in EC50: over 10 µM for the first, under 1 µM for the second. The second is the more potent here.

Compared with `CN(C)c1ccc(CNC(=O)c2ccc(-n3[nH]c4c(nnc5ccccc54)c3=O)cc2)cc1` [Example 237], `O=C(NCc1cccc(C(F)(F)F)c1)c1ccc(-n2[nH]c3c(nnc4ccccc43)c2=O)cc1` [Example 248] is higher in EC50: under 1 µM for the first, over 10 µM for the second.

`O=C(NCC1CCCO1)c1ccc(-n2[nH]c3c(nnc4ccccc43)c2=O)cc1` (stereo not shown) [Example 238] and `O=C(NCC1CCCCC1)c1ccc(-n2[nH]c3c(nnc4ccccc43)c2=O)cc1` [Example 244] fall in the same range of EC50: 1 to 10 µM for the first, 1 to 10 µM for the second.

Compared with `O=C(NCc1ccco1)c1ccc(-n2[nH]c3c(nnc4ccccc43)c2=O)cc1` [Example 242], `O=C(NCCc1cccs1)c1ccc(-n2[nH]c3c(nnc4ccccc43)c2=O)cc1` [Example 255] is higher in EC50: under 1 µM for the first, over 10 µM for the second. The first is the more potent here.

First: CC(C)NC(=O)c1ccc(-n2[nH]c3c(nnc4ccccc43)c2=O)cc1 [Example 243]
Second: CCC(C)NC(=O)c1ccc(-n2[nH]c3c(nnc4ccccc43)c2=O)cc1 (stereo not shown) [Example 258]
The EC50 of the first is lower: under 1 µM for the first, 1 to 10 µM for the second.

Compared with `CCCCCCCNC(=O)c1ccc(-n2[nH]c3c(nnc4ccccc43)c2=O)cc1` [Example 245], `CCCCCNC(=O)c1ccc(-n2[nH]c3c(nnc4ccccc43)c2=O)cc1` [Example 251] is higher in EC50: 1 to 10 µM for the first, over 10 µM for the second. The first is the more potent here.

Compared with `C=CCNC(=O)c1ccc(-n2[nH]c3c(nnc4ccccc43)c2=O)cc1` [Example 246], `CC(C)CNC(=O)c1ccc(-n2[nH]c3c(nnc4ccccc43)c2=O)cc1` [Example 260] is higher in EC50: under 1 µM for the first, 1 to 10 µM for the second.

`COCCCNC(=O)c1ccc(-n2[nH]c3c(nnc4ccccc43)c2=O)cc1` [Example 247] and `CSCCCNC(=O)c1ccc(-n2[nH]c3c(nnc4ccccc43)c2=O)cc1` [Example 274] cannot be ordered by EC50: under 1 µM for the first, under 1 µM for the second.

Compared with `O=C(NC1CCc2ccccc21)c1ccc(-n2[nH]c3c(nnc4ccccc43)c2=O)cc1` (stereo not shown) [Example 252], `O=C(NC1CCOC1=O)c1ccc(-n2[nH]c3c(nnc4ccccc43)c2=O)cc1` (stereo not shown) [Example 277] is lower in EC50: over 10 µM for the first, 1 to 10 µM for the second. The second is the more potent here.

`O=C(NCCSCc1c(F)cccc1Cl)c1ccc(-n2[nH]c3c(nnc4ccccc43)c2=O)cc1` [Example 254] and `O=C(NCCc1ccccc1)c1ccc(-n2[nH]c3c(nnc4ccccc43)c2=O)cc1` [Example 270] cannot be ordered by EC50: over 10 µM for the first, over 10 µM for the second.

First: O=C(NCC1CCNCC1)c1ccc(-n2[nH]c3c(nnc4ccccc43)c2=O)cc1 [Example 256]
Second: O=C(NCC1CCNCC1)Nc1ccc(-n2[nH]c3c(nnc4ccccc43)c2=O)cc1 [Example 290]
The EC50 of the first is higher: 1 to 10 µM for the first, under 1 µM for the second. The second is the more potent here.

Going from `O=C(NCCN1CCCC1)c1ccc(-n2[nH]c3c(nnc4ccccc43)c2=O)cc1` [Example 259] to `O=C(NCCC1=CCCCC1)c1ccc(-n2[nH]c3c(nnc4ccccc43)c2=O)cc1` [Example 272], the EC50 rises from under 1 µM to over 10 µM.

Compared with `CC(NC(=O)Nc1ccc(-n2[nH]c3c(nnc4ccccc43)c2=O)cc1)C1CCCCC1` (stereo not shown) [Example 261], `CC(C)C(C)NC(=O)Nc1ccc(-n2[nH]c3c(nnc4ccccc43)c2=O)cc1` (stereo not shown) [Example 263] is lower in EC50: over 10 µM for the first, 1 to 10 µM for the second. The second is the more potent here.

`CC(NC(=O)Nc1ccc(-n2[nH]c3c(nnc4ccccc43)c2=O)cc1)C(C)(C)C` (stereo not shown) [Example 262] and `CC(C)(C)OC(=O)N1CCC(CNC(=O)Nc2ccc(-n3[nH]c4c(nnc5ccccc54)c3=O)cc2)CC1` [Example 264] cannot be ordered by EC50: over 10 µM for the first, over 10 µM for the second.

`O=C(NCCCCNC(=O)c1ccc(-n2[nH]c3c(nnc4ccccc43)c2=O)cc1)OCc1ccccc1` [Example 266] and `O=C(NCCNCc1ccccc1)c1ccc(-n2[nH]c3c(nnc4ccccc43)c2=O)cc1` [Example 281] cannot be ordered by EC50: under 1 µM for the first, under 1 µM for the second.

First: O=C(NC1CONC1=O)c1ccc(-n2[nH]c3c(nnc4ccccc43)c2=O)cc1 (stereo not shown) [Example 267]
Second: O=C(NC1CN2CCC1CC2)c1ccc(-n2[nH]c3c(nnc4ccccc43)c2=O)cc1 (stereo not shown) [Example 278]
The EC50 of the first is higher: 1 to 10 µM for the first, under 1 µM for the second.

`O=C(NCCc1c[nH]c2ccccc12)c1ccc(-n2[nH]c3c(nnc4ccccc43)c2=O)cc1` [Example 268] and `CCC(COCc1ccccc1)NC(=O)c1ccc(-n2[nH]c3c(nnc4ccccc43)c2=O)cc1` (stereo not shown) [Example 276] fall in the same range of EC50: 1 to 10 µM for the first, 1 to 10 µM for the second.

Compared with `CCCNCCNC(=O)c1ccc(-n2[nH]c3c(nnc4ccccc43)c2=O)cc1` [Example 269], `CCCCNCCNC(=O)c1ccc(-n2[nH]c3c(nnc4ccccc43)c2=O)cc1` [Example 279] is lower in EC50: over 10 µM for the first, under 1 µM for the second.

`NCCCCCCNC(=O)c1ccc(-n2[nH]c3c(nnc4ccccc43)c2=O)cc1` [Example 271] and `CCN(CC)CCNCCNC(=O)c1ccc(-n2[nH]c3c(nnc4ccccc43)c2=O)cc1` [Example 280] cannot be ordered by EC50: under 1 µM for the first, under 1 µM for the second.

Compared with `CCCCCCCCCCCCOCCCNC(=O)c1ccc(-n2[nH]c3c(nnc4ccccc43)c2=O)cc1` [Example 273], `CCOC(=O)C1CCCC1NC(=O)c1ccc(-n2[nH]c3c(nnc4ccccc43)c2=O)cc1` (stereo not shown) [Example 275] is lower in EC50: over 10 µM for the first, 1 to 10 µM for the second. The second is the more potent here.

First: CC(C)=CCC/C(C)=C/CNC(=O)Nc1ccc(-n2[nH]c3c(nnc4ccccc43)c2=O)cc1 [Example 283]
Second: O=C(NCCc1cccs1)Nc1ccc(-n2[nH]c3c(nnc4ccccc43)c2=O)cc1 [Example 289]
The EC50 of the first is higher: over 10 µM for the first, 1 to 10 µM for the second. The second is the more potent here.

`O=C(NCc1cccc(F)c1)Nc1ccc(-n2[nH]c3c(nnc4ccccc43)c2=O)cc1` [Example 284] and `O=C(NCc1ccc2c(c1)OCO2)Nc1ccc(-n2[nH]c3c(nnc4ccccc43)c2=O)cc1` [Example 286] cannot be ordered by EC50: over 10 µM for the first, over 10 µM for the second.

`O=C(NCCc1cnc[nH]1)Nc1ccc(-n2[nH]c3c(nnc4ccccc43)c2=O)cc1` [Example 285] and `O=C(NCCCn1ccnc1)Nc1ccc(-n2[nH]c3c(nnc4ccccc43)c2=O)cc1` [Example 298] cannot be ordered by EC50: under 1 µM for the first, under 1 µM for the second.

First: O=C(NCCN1CCNC1=O)Nc1ccc(-n2[nH]c3c(nnc4ccccc43)c2=O)cc1 [Example 287]
Second: CC(C)(C)OC(=O)N1CCN(CCNC(=O)Nc2ccc(-n3[nH]c4c(nnc5ccccc54)c3=O)cc2)CC1 [Example 294]
The EC50 of the first is lower: under 1 µM for the first, 1 to 10 µM for the second.

`O=C(NCc1ccc([N+](=O)[O-])cc1)Nc1ccc(-n2[nH]c3c(nnc4ccccc43)c2=O)cc1` [Example 296] was tested, and the EC50 was over 10 µM.

Same assay, conditions: cell-free HTRF, compound concentration series 100 μM-1.7 nM, 4 hours at room temperature; read-out: Activity (EC50 in the HTRF assay)

`O=C(NCCc1cccnc1)Nc1ccc(-n2[nH]c3c(nnc4ccccc43)c2=O)cc1` [Example 217] and `O=C(NCCCCCNC(=O)OCc1ccccc1)Nc1ccc(-n2[nH]c3c(nnc4ccccc43)c2=O)cc1` [Example 219] fall in the same range of EC50: 1 to 10 µM for the first, 1 to 10 µM for the second.

`CC(C)CCC(C)NC(=O)Nc1ccc(-n2[nH]c3c(nnc4ccccc43)c2=O)cc1` (stereo not shown) [Example 218] and `CC(C)(C)OC(=O)NCCCCNC(=O)Nc1ccc(-n2[nH]c3c(nnc4ccccc43)c2=O)cc1` [Example 220] cannot be ordered by EC50: over 10 µM for the first, over 10 µM for the second.
